{"source": "patent US7183061B2", "about": "“Method of expressing Heliothis ecdysone receptor fusion protein” (Syngenta Limited, priority 1996, dated 2007)", "key": {"[1]": {"biological_target": "chimeric glucocorticoid VP16/Heliothis ecdysone receptor (UniProt O18473+P04150, DEL153-392/E478D/INS403[…]/INS405[…]/M398P/P396A/P400T/P406S/R399P/S397A/Y393A)", "sequence (P04150+O18473 fused with the stated changes)": "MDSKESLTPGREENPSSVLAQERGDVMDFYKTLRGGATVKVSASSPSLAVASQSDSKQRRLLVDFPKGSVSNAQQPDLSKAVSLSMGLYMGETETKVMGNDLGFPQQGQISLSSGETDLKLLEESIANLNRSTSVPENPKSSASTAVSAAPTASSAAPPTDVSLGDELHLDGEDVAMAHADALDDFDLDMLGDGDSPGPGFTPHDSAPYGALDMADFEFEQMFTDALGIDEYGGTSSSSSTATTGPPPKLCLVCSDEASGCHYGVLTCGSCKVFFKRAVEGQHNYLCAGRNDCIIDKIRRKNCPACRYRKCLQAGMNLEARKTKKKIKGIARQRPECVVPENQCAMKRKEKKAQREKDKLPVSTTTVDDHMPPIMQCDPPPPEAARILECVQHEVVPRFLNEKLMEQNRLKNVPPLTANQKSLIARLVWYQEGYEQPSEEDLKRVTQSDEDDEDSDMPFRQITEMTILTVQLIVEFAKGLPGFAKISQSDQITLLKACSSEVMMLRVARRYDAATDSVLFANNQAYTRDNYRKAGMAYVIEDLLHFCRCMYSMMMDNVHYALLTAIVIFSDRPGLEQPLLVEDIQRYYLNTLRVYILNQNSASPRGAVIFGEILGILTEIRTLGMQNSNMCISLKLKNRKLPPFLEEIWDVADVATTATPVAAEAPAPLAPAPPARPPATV", "assay": "GUS levels in transgenic tobacco progeny containing pES3 and pES4", "type": "in vivo, Heliothis virescens", "set-up": "expressed in transfected cells; stably transformed tobacco plants, pES3/pES4 (A11)", "description": "The methodology described below was used to produce four different stable Tobacco vectors. The method involves three steps: • 1. pbluescript SK HindIII/EcoRI vector was ligated to either GRE6-4635SCaMVGUSNOS HindIII/EcoRI (from p221.10GRE6) or GRE6-6035SCaMVGUSNOS HindIII/EcoRI (from p221.9GRE6) resulting in plasmid pSK-46 and pSK-60. • 2. This step involves the addition of the chimeric receptor (35SGRHEcRNOS or 35SGRVP16HEcRNOS) to pSK-60 or pSK-46. Thus a pSK-60 (or pSK-46) XbaI vector was ligated with either the 3.4 kb 35SGRHEcRNOS XbaI or the 3.0 kb 35SGRVP16HEcRNOS XbaI DNA fragment to produce pSKES1 (pSKGRE6-6035SCaMVGUSNOS-35SGRHEcRNOS), pSKES2 (pSKGRE6-4635 SCaMVGUSNOS-35 SGRHEcRNOS), pSKES3 (pSKGRE6-6035SCaMVGUSNOS-35SGRVP16HEcRNOS) and pSKES4 (pSKGRE6-4635SCaMVGUSNOS-35SGRVP16HEcRNOS). • 3. Transfer from pBluescript based vectors to binary vectors. […] The DNA of the recombinant was characterised by restriction mapping and the sequence of the junctions determined. […]"}, "[2]": {"biological_target": "T1, chimeric ecdysone receptor and reporter gene cassette (pES1) (UniProt O18473+P04150)", "T1 construct": "expressed in transfected cells; host or cells: stably transformed tobacco plants (A9)", "T1 sequence (P04150+O18473 with tags, fused parts or gaps)": "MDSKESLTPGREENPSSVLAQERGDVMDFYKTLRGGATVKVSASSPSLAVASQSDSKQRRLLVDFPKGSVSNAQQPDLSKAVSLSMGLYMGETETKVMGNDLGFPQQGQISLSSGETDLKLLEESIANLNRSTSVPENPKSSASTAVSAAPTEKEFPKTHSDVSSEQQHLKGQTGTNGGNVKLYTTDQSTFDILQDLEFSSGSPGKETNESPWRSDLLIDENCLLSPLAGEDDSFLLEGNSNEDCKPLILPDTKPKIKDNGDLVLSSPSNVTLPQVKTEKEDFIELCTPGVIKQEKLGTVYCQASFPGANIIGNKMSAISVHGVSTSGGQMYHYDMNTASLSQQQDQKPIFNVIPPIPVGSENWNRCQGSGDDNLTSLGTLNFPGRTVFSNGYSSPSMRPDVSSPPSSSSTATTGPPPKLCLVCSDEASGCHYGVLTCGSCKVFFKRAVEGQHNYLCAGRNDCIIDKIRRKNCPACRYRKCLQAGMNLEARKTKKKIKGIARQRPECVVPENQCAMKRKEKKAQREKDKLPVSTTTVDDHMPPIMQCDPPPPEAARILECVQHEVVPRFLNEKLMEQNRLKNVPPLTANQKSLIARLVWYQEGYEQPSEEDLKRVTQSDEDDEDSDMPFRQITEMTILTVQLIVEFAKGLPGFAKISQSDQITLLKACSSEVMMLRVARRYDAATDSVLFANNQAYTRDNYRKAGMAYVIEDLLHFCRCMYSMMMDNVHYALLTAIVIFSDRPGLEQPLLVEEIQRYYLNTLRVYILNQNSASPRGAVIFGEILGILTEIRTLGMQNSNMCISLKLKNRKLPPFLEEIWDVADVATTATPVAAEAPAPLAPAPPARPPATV", "assay": "GUS activity in stably transformed tobacco plants (pES1)", "type": "in vivo, Heliothis virescens", "description": "The methodology described below was used to produce four different stable Tobacco vectors. The method involves three steps: • 1. pbluescript SK HindIII/EcoRI vector was ligated to either GRE6-4635SCaMVGUSNOS HindIII/EcoRI (from p221.10GRE6) or GRE6-6035SCaMVGUSNOS HindIII/EcoRI (from p221.9GRE6) resulting in plasmid pSK-46 and pSK-60. • 2. This step involves the addition of the chimeric receptor (35SGRHEcRNOS or 35SGRVP16HEcRNOS) to pSK-60 or pSK-46. Thus a pSK-60 (or pSK-46) XbaI vector was ligated with either the 3.4 kb 35SGRHEcRNOS XbaI or the 3.0 kb 35SGRVP16HEcRNOS XbaI DNA fragment to produce pSKES1 (pSKGRE6-6035SCaMVGUSNOS-35SGRHEcRNOS), pSKES2 (pSKGRE6-4635 SCaMVGUSNOS-35 SGRHEcRNOS), pSKES3 (pSKGRE6-6035SCaMVGUSNOS-35SGRVP16HEcRNOS) and pSKES4 (pSKGRE6-4635SCaMVGUSNOS-35SGRVP16HEcRNOS). • 3. Transfer from pBluescript based vectors to binary vectors. The transfer of the ES1 (FIG. 29) ES2 (FIG. 30), ES3 (FIG. 31) or ES4 (FIG. 32) DNA fragments into the binary vector JR1 involves five steps: • (i) Restriction enzyme digestion of pSKES1 (ES2, ES3, and ES4) with ApaI and NotI to liberate the insert from the vector pBluescript. • (ii) The two DNA fragments were BamHI methylated for 2 hours at 37° C. in TRIS-HCl, MgCl, 80 μM SAM (S-adenosylmethionine) and 20 U of BamHI methylase. • (iii) Ligate an ApaI/NotI linker onto the fragment. The linker was designed to have an internal BamHI site: • ApaBNot1 5′ cattggatccttagc 3′ (SEQ ID NO: 46) and • ApaBNot2 5′ […] 3′ (SEQ ID NO: 47). • (iv) Restriction enzyme digest the protected and linkered fragment with BamHI and fractionate the products on a 1% (w/v) agarose gel. The protected DNA fragment (5.5 kb) was cut out of the gel and purified. • (v) A ligation of JRI BamHI vector with the protected band was carried out to produce JRIESI (JRIES2, JRIES3 or JRIES4). The DNA of the recombinant was characterised by restriction mapping and the sequence of the junctions determined. […]"}}, "data": [{"smiles": "CCc1ccc(C(=O)NN(C(=O)c2cc(C)cc(C)c2)C(C)(C)C)cc1", "note": "[RH5992, 3,5-dimethylbenzoic acid 1-1(1,1-dimethylethyl)-2(4-ethylbenzoyl)hydrazide]", "values": [{"measurement": "GUS levels relative to transgenic plants containing non-VP16 vectors pES1 and pES2", "setting": "[1]", "result": "elevated GUS levels"}, {"measurement": "GUS activity", "setting": "[2]; 5 mM foliar application, 8 week old glasshouse grown tobacco plants", "result": "significantly elevated"}, {"measurement": "GUS activity", "setting": "[2]; seedlings grown hydroponically in the presence of inducer", "result": "significantly elevated"}, {"measurement": "GUS activity", "setting": "[2]; transgenic tobacco treated in cell culture, 100 μM in MS media", "result": "significantly elevated"}]}]}
